Experimental data reported in patent publication US12252524B2, “GIP/GLP1 co-agonist compounds” (Eli Lilly and Company, priority 2018, dated 2025).
Numbered stars: 1 amine (or outer) side, 2 acyl side, 3 side chain; on linkers, the order of the positions; unused ones are H or OH. Square brackets hold non-standard residues; d marks the D form. Side chains are listed from the residue outwards. Peptide text beside a SMILES is read from it. * marks the point of attachment. C20 diacid = O=C(O)CCCCCCCCCCCCCCCCCCC(=O)*; C18 diacid = O=C(O)CCCCCCCCCCCCCCCCC(=O)*; γGlu = O=C(O)[C@H](CCC(=O)[*:2])N[*:1]; αMeL = CC(C)C[C@](C)(N)C(=O)O; AEEA = NCCOCCOCC(=O)O; Aib = CC(C)(N)C(=O)O

Legend:
[1] = target: T1, human Gcg receptor (Homo sapiens, UniProt P47871); experiment: [125I]-Glucagon binding (SPA), human Gcg receptor; details: read-out: hGLcgR Ki, nM (SEM, n)
T1 construct: expressed in transfected cells; crude membranes
T1 sequence (P47871 26-477): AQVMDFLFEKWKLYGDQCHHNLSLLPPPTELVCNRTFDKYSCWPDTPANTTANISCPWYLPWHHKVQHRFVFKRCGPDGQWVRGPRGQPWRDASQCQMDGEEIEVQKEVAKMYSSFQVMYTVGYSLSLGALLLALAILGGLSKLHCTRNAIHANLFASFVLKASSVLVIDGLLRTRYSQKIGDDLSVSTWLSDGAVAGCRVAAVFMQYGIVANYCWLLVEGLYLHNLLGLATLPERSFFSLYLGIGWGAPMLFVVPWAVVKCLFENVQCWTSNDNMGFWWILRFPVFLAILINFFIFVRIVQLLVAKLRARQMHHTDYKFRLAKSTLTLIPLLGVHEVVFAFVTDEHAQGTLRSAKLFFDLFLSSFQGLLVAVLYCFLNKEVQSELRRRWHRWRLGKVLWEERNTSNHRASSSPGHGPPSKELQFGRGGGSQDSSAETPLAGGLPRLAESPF
Summary of the method: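 Scintillation counts are taken after membranes and WGA beads incubate and settle for 12 hours at room temperature. Buffer is 25 mM HEPES, pH 7.4, with CaCl2, MgCl2, bacitracin and Tween-20. Ki values, from four-parameter IC50 fits, are geometric means over independent days.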

[2] = target: T2, human GIP receptor (Homo sapiens, UniProt P48546); experiment: [125I]-GIP binding (SPA), human GIP receptor; details: read-out: hGIPR Ki, nM (SEM, n)
T2 construct: expressed in transfected cells; crude membranes
T2 sequence (P48546 22-466): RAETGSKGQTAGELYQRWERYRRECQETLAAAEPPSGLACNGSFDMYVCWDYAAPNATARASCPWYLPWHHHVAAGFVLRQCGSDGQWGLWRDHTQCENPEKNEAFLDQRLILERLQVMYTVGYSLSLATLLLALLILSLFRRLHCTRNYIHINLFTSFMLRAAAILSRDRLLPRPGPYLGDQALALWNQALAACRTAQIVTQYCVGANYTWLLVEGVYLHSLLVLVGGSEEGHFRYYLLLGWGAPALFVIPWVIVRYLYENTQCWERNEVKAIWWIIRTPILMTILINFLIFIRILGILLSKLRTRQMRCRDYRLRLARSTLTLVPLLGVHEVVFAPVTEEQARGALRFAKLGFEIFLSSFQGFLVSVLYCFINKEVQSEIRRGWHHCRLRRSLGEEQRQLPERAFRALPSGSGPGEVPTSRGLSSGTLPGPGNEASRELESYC

[3] = target: human GLP-1 receptor (GLP-1R) (Homo sapiens, UniProt P43220); experiment: cAMP pharmacological functional assay in presence of casein, hGLP-1R; assay type: cell-based; details: HEK293 cells expressing hGLP-1R, 0.1% Casein, geometric mean; read-out: hGLP1R cAMP Rel EC50 nM (SEM, n)
Chain of human GLP-1 receptor (GLP-1R) (P43220 24-463): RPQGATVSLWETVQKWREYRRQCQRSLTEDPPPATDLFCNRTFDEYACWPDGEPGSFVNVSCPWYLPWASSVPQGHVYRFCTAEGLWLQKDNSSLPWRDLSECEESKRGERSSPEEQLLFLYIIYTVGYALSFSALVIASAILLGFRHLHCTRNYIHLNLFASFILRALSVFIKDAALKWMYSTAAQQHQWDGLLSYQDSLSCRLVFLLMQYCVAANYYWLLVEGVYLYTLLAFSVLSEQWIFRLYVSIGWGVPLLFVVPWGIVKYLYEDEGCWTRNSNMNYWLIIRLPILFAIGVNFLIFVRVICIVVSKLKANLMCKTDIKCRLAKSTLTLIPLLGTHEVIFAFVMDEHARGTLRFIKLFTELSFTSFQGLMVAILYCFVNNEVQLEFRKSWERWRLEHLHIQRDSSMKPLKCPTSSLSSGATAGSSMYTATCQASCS

[4] = target: T3, gastric inhibitory peptide receptor (GIPR) (Homo sapiens, UniProt P48546); experiment: cAMP pharmacological functional assay in presence of casein, hGIPR; assay type: cell-based; details: HEK293 cells expressing hGIPR, 0.1% Casein, geometric mean; read-out: hGIPR cAMP Rel EC50 nM (SEM, n)
T3 sequence (P48546 22-466): T2 sequence (P48546 22-466)

[5] = target: T4, human GLP-1R (Homo sapiens, UniProt P43220); experiment: [125I]-GLP-1 binding (SPA), human GLP-1 receptor; parameters: expressed in transfected cells; crude membranes; details: read-out: hGLP1R Ki, (nM) (SEM, n)
T4 sequence (P43220 24-463): as above
Summary of the method: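 Ki values are geometric means with SEM over independent replicates on different days, derived from IC50s fitted by four-parameter nonlinear regression. The assay used crude cell membranes in HEPES buffer, pH 7.4, containing CaCl2, MgCl2, bacitracin and TWEEN-20.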

[6] = target: T4, human GLP-1R; experiment: GLP-1R CHO cell β-arrestin recruitment assay; assay type: cell-based; parameters: host or cells: CHO-K1 PathHunter cells, assay-ready frozen; details: for EC50: CHO-K1 cells, PathHunter β-arrestin-2 recruitment, 0.1% casein, read-out: hGLP1R B-Arrestin2 Rel EC50 uM (SEM, n); for hGLP1R B-Arrestin2 % Top: normalized to GLP-1 maximum control
Summary of the method: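 Peptide-induced β-arrestin-2 recruitment measured by enzyme-fragment complementation luminescence after 90 min at 37 °C plus 60 min detection at RT.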

[7] = target: T4, human GLP-1R; experiment: GLP-1R HEK293 cell membrane [35S]GTPγS binding assay; assay type: biochemical; parameters: expressed in transfected cells; host or cells: HEK293 cells expressing human GLP-1R; membranes; details: HEK293 cell membranes expressing human GLP-1R, [35S]GTPγS binding; read-out: hGLP1R GTPgS Rel EC50 nM (SEM, n)
Summary of the method: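 Agonist-driven Gαs activation read as [35S]GTPγS ([…]) binding to receptor-expressing HEK293 membranes, 30 min at room temperature, pH 7.4. Detection by anti-Gαs immunocapture on scintillation beads; EC50 derived from four-parameter logistic concentration-response fit.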

Compound	Ki [1] [nM]	Ki [2] [nM]	EC50 [3] [nM]	EC50 [4] [nM]	Ki [5] [nM]	EC50 [6] [µM]	hGLP1R B-Arrestin2 % Top [6] [%]	EC50 [7] [nM]
CC[C@H](C)[C@H](NC(=O)[C@H](CC(C)C)NC(=O)[C@H](Cc1ccc(O)cc1)NC(=O)[C@H](CCC(=O)O)NC(=O)[C@@H](NC(=O)[C@H](Cc1ccccc1)NC(=O)[C@H](C)NC(=O)C(C)(C)NC(=O)[C@H](CCC(N)=O)NC(=O)[C@H](C)NC(=O)[C@H](CCCCNC(=O)COCCOCCNC(=O)COCCOCCNC(=O)CC[C@H](NC(=O)CCCCCCCCCCCCCCCCCCC(=O)O)C(=O)O)NC(=O)[C@H](CCCCN)NC(=O)[C@H](CC(=O)O)NC(=O)[C@H](CC(C)C)NC(=O)[C@](C)(CC(C)C)NC(=O)[C@@H](NC(=O)[C@H](CO)NC(=O)[C@H](Cc1ccc(O)cc1)NC(=O)[C@H](CC(=O)O)NC(=O)[C@H](CO)NC(=O)[C@@H](NC(=O)[C@H](Cc1ccccc1)NC(=O)[C@@H](NC(=O)CNC(=O)[C@H](CCC(=O)O)NC(=O)C(C)(C)NC(=O)[C@@H](N)Cc1ccccc1)[C@@H](C)O)[C@@H](C)O)[C@@H](C)CC)[C@@H](C)CC)C(=O)N[C@@H](C)C(=O)NCC(=O)NCC(=O)N1CCC[C@H]1C(=O)N[C@@H](CO)C(=O)N[C@@H](CO)C(=O)NCC(=O)N[C@@H](C)C(=O)N1CCC[C@H]1C(=O)N1CCC[C@H]1C(=O)N1CCC[C@H]1C(=O)N[C@@H](CO)C(N)=O [Example 337] (H-F[Aib]EGTFTSDYSI[αMeL]LDKK([AEEA-AEEA-γGlu-C20 diacid])AQ[Aib]AFIEYLIAGGPSSGAPPPS-NH2)	335	0.0363	0.173	0.0515	1.61	0.0174	34.1	0.322
CC[C@H](C)[C@H](NC(=O)[C@H](CC(C)C)NC(=O)[C@H](Cc1ccc(O)cc1)NC(=O)[C@H](CCC(=O)O)NC(=O)[C@@H](NC(=O)[C@H](Cc1ccccc1)NC(=O)[C@H](C)NC(=O)C(C)(C)NC(=O)[C@H](CCC(N)=O)NC(=O)[C@H](C)NC(=O)[C@H](CCCCNC(=O)COCCOCCNC(=O)COCCOCCNC(=O)CC[C@H](NC(=O)CCCCCCCCCCCCCCCCC(=O)O)C(=O)O)NC(=O)[C@H](CCCCN)NC(=O)[C@H](CC(=O)O)NC(=O)[C@H](CC(C)C)NC(=O)[C@H](CC(C)C)NC(=O)[C@@H](NC(=O)[C@H](CO)NC(=O)[C@H](Cc1ccc(O)cc1)NC(=O)[C@H](CC(=O)O)NC(=O)[C@H](CO)NC(=O)[C@@H](NC(=O)[C@H](Cc1ccccc1)NC(=O)[C@@H](NC(=O)CNC(=O)[C@H](CCC(=O)O)NC(=O)C(C)(C)NC(=O)[C@@H](N)Cc1ccc(O)cc1)[C@@H](C)O)[C@@H](C)O)[C@@H](C)CC)[C@@H](C)CC)C(=O)N[C@@H](CCC(=O)O)C(=O)NCC(=O)NCC(N)=O [Example 267] (H-Y[Aib]EGTFTSDYSILLDKK([AEEA-AEEA-γGlu-C18 diacid])AQ[Aib]AFIEYLIEGG-NH2)	349	0.0628	0.054	0.108	1.57	0.00901	16.5	0.867
